Assay results taken from PubChem BioAssay AID651573 (The Scripps Research Institute Molecular Screening Center, 2012).
Calls of active or inactive are those of the source.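 Rule for the calls: active = percent growth at or below 50%, meaning growth inhibited by at least half; inactive = percent growth above 50%.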

Legend:
Test in all cases: cancer cell panel antiproliferative activity – NCI60 one-dose, 10 µM, STAT3 inhibitor project, profiling panel (AID 651573)
[1] = tested on: Non-Small Cell Lung Cancer A549/ATCC; conditions: SRB absorbance, 48 h, at 10 µM, active compounds read low
Renal Cancer 786-0 = conditions: SRB absorbance, 48 h, at 10 µM, active compounds read low
Leukemia RPMI-8226 = conditions: SRB absorbance, 48 h, at 10 µM, active compounds read low
Breast Cancer BT-549 = conditions: SRB absorbance, 48 h, at 10 µM, active compounds read low, 0 = no net growth, negative = cell kill
Colon Cancer SW-620 = conditions: SRB absorbance, 48 h, at 10 µM, active compounds read low, 0 = no net growth, negative = cell kill
[2] = tested on: Non-Small Cell Lung Cancer NCI-H226; conditions: SRB absorbance, 48 h, at 10 µM, active compounds read low
Renal Cancer A498 = conditions: SRB absorbance, 48 h, at 10 µM, active compounds read low
Renal Cancer TK-10 = conditions: SRB absorbance, 48 h, at 10 µM, active compounds read low
Renal Cancer RXF 393 = conditions: SRB absorbance, 48 h, at 10 µM, active compounds read low
Leukemia SR = conditions: SRB absorbance, 48 h, at 10 µM, active compounds read low
Melanoma SK-MEL-28 = conditions: SRB absorbance, 48 h, at 10 µM, active compounds read low
CNS Cancer SF-295 = conditions: SRB absorbance, 48 h, at 10 µM, active compounds read low
Melanoma SK-MEL-5 = conditions: SRB absorbance, 48 h, at 10 µM, active compounds read low
Colon Cancer HCT-116 = conditions: SRB absorbance, 48 h, at 10 µM, active compounds read low
Ovarian Cancer SK-OV-3 = conditions: SRB absorbance, 48 h, at 10 µM, active compounds read low
Ovarian Cancer OVCAR-8 = conditions: SRB absorbance, 48 h, at 10 µM, active compounds read low
CNS Cancer U251 = conditions: SRB absorbance, 48 h, at 10 µM, active compounds read low
[3] = tested on: Non-Small Cell Lung Cancer NCI-H522; conditions: SRB absorbance, 48 h, at 10 µM, active compounds read low
Ovarian Cancer OVCAR-3 = conditions: SRB absorbance, 48 h, at 10 µM, active compounds read low
Leukemia K-562 = conditions: SRB absorbance, 48 h, at 10 µM, active compounds read low
Prostate Cancer PC-3 = conditions: SRB absorbance, 48 h, at 10 µM, active compounds read low
[4] = tested on: Non-Small Cell Lung Cancer EKVX; conditions: SRB absorbance, 48 h, at 10 µM, active compounds read low
CNS Cancer SNB-19 = conditions: SRB absorbance, 48 h, at 10 µM, active compounds read low
Renal Cancer CAKI-1 = conditions: SRB absorbance, 48 h, at 10 µM, active compounds read low
Breast Cancer MDA-MB-468 = conditions: SRB absorbance, 48 h, at 10 µM, active compounds read low
[5] = tested on: Non-Small Cell Lung Cancer HOP-62; conditions: SRB absorbance, 48 h, at 10 µM, active compounds read low, 0 = no net growth, negative = cell kill
[6] = tested on: Non-Small Cell Lung Cancer NCI-H23; conditions: SRB absorbance, 48 h, at 10 µM, active compounds read low
Melanoma SK-MEL-2 = conditions: SRB absorbance, 48 h, at 10 µM, active compounds read low
Colon Cancer COLO 205 = conditions: SRB absorbance, 48 h, at 10 µM, active compounds read low, 0 = no net growth, negative = cell kill
CNS Cancer SF-268 = conditions: SRB absorbance, 48 h, at 10 µM, active compounds read low
Melanoma M14 = conditions: SRB absorbance, 48 h, at 10 µM, active compounds read low
Melanoma UACC-62 = conditions: SRB absorbance, 48 h, at 10 µM, active compounds read low, 0 = no net growth, negative = cell kill
Renal Cancer SN12C = conditions: SRB absorbance, 48 h, at 10 µM, active compounds read low
CNS Cancer SNB-75 = conditions: SRB absorbance, 48 h, at 10 µM, active compounds read low
[7] = tested on: Non-Small Cell Lung Cancer NCI-H460; conditions: SRB absorbance, 48 h, at 10 µM, active compounds read low
[8] = tested on: Non-Small Cell Lung Cancer HOP-92; conditions: SRB absorbance, 48 h, at 10 µM, active compounds read low, 0 = no net growth, negative = cell kill
Colon Cancer KM12 = conditions: SRB absorbance, 48 h, at 10 µM, active compounds read low
Melanoma UACC-257 = conditions: SRB absorbance, 48 h, at 10 µM, active compounds read low
Breast Cancer HS 578T = conditions: SRB absorbance, 48 h, at 10 µM, active compounds read low
[9] = tested on: Breast Cancer MDA-MB-231/ATCC; conditions: SRB absorbance, 48 h, at 10 µM, active compounds read low
Melanoma MDA-MB-435 = conditions: SRB absorbance, 48 h, at 10 µM, active compounds read low
[10] = tested on: Ovarian Cancer NCI/ADR-RES; conditions: SRB absorbance, 48 h, at 10 µM, active compounds read low
Leukemia CCRF-CEM = conditions: SRB absorbance, 48 h, at 10 µM, active compounds read low
Breast Cancer MCF7 = conditions: SRB absorbance, 48 h, at 10 µM, active compounds read low
Colon Cancer HCC-2998 = conditions: SRB absorbance, 48 h, at 10 µM, active compounds read low
Melanoma LOX IMVI = conditions: SRB absorbance, 48 h, at 10 µM, active compounds read low
Leukemia MOLT-4 = conditions: SRB absorbance, 48 h, at 10 µM, active compounds read low
Colon Cancer HCT-15 = conditions: SRB absorbance, 48 h, at 10 µM, active compounds read low
Prostate Cancer DU-145 = conditions: SRB absorbance, 48 h, at 10 µM, active compounds read low

Compound: COc1ccc(C(=O)C2CCN(c3ncnc4sccc34)CC2)cc1
- percent growth [1]: 74.5% (inactive)
- percent growth (Renal Cancer 786-0): 72.4% (inactive)
- percent growth (Leukemia RPMI-8226): 27.7%
- percent growth (Breast Cancer BT-549): 53.4% (inactive)
- percent growth (Colon Cancer SW-620): 90.8% (inactive)
- percent growth [2]: 88.8% (inactive)
- percent growth (Renal Cancer A498): 91.7% (inactive)
- percent growth (Renal Cancer TK-10): 73.3% (inactive)
- percent growth (Renal Cancer RXF 393): 102% (inactive)
- percent growth (Leukemia SR): 47.9%
- percent growth (Melanoma SK-MEL-28): 105% (inactive)
- percent growth (CNS Cancer SF-295): 57.1% (inactive)
- percent growth (Melanoma SK-MEL-5): 26.5%
- percent growth (Colon Cancer HCT-116): 34.4%
- percent growth (Ovarian Cancer SK-OV-3): 89.9% (inactive)
- percent growth (Ovarian Cancer OVCAR-8): 64% (inactive)
- percent growth (CNS Cancer U251): 77.5% (inactive)
- percent growth [3]: 49.2%
- percent growth (Ovarian Cancer OVCAR-3): 97.1% (inactive)
- percent growth (Leukemia K-562): 41.4%
- percent growth (Prostate Cancer PC-3): 76.9% (inactive)
- percent growth [4]: 34.9%
- percent growth (CNS Cancer SNB-19): 64.8% (inactive)
- percent growth (Renal Cancer CAKI-1): 66.4% (inactive)
- percent growth (Breast Cancer MDA-MB-468): 18.9%
- percent growth [5]: 91.9% (inactive)
- percent growth [6]: 53.4% (inactive)
- percent growth (Melanoma SK-MEL-2): 76% (inactive)
- percent growth (Colon Cancer COLO 205): 88.2% (inactive)
- percent growth (CNS Cancer SF-268): 85.4% (inactive)
- percent growth (Melanoma M14): 78.5% (inactive)
- percent growth (Melanoma UACC-62): 52.7% (inactive)
- percent growth (Renal Cancer SN12C): 71.2% (inactive)
- percent growth (CNS Cancer SNB-75): 104% (inactive)
- percent growth [7]: 71% (inactive)
- percent growth [8]: 61.7% (inactive)
- percent growth (Colon Cancer KM12): 87.9% (inactive)
- percent growth (Melanoma UACC-257): 63.7% (inactive)
- percent growth (Breast Cancer HS 578T): 93.6% (inactive)
- percent growth [9]: 77.8% (inactive)
- percent growth (Melanoma MDA-MB-435): 66.6% (inactive)
- percent growth [10]: 43.5%
- percent growth (Leukemia CCRF-CEM): 42.3%
- percent growth (Breast Cancer MCF7): 55.4% (inactive)
- percent growth (Colon Cancer HCC-2998): 82.3% (inactive)
- percent growth (Melanoma LOX IMVI): 40.1%
- percent growth (Leukemia MOLT-4): 57.7% (inactive)
- percent growth (Colon Cancer HCT-15): 72.4% (inactive)
- percent growth (Prostate Cancer DU-145): 98.8% (inactive)
